PubChem BioAssay AID2060342 (Molecular Pharmacology Branch, DTP, NCI, 2025)

Test system: 171881-019-R-J1-PDC multicell spheroid viability
Assay: Anticancer human tumor 171881-019-R-J1-PDC patient-derived invasive breast carcinoma cell line growth inhibition [IpAb]
Details: for IC50: curve of first compound; for viability, T/C: stronger effect = lower value
Source text: Combinatorial screen of targeted agents with ipatasertib and abemaciclib in multi-cell type tumor spheroids
A high-throughput screen of multi-cell type tumor spheroids was designed to identify active combinations of targeted small molecules and ipatasertib or abemaciclib. Complex spheroids include a stromal component modeled by human endothelial cells (HUVEC) and fibroblasts modeled by human mesenchymal stem cells (MSCs). The concentration ranges selected for each drug and investigational agent were based upon clinically achievable concentrations if the clinical Cmax of the agent was known.
Compounds. The drugs and investigational agents: ipatasertib (NSC767898), abemaciclib(NSC768073), selumetinib (NSC741078), trametinib (758246), adavosertib (NSC754352), everolimus (NSC733504), sapanisertib (NSC764658), vemurafenib (NSC761431), venetoclax (NSC766270), copanlisib (NSC809693), apelisib (NSC765974), palbociblib (NSC758247), vemurafenib (NSC761431), dabrafenib (NSC764134), ravoxertinib (NSC781343), BMS-387032 (NSC767048), sotorasib (NSC818433), talazoparib (NSC767125) and afursertib (NSC778305), were obtained from the National Cancer Institute (NCI) Developmental Therapeutics Program Chemical Repository. The FDA-approved anticancer drug set is available from the NCI Developmental Therapeutics Program. […] The stock solutions were prepared in dimethyl sulfoxide (DMSO, Sigma-Aldrich, St. Louis, MO, cat. D2650) at 800-fold the tested concentration and stored at -70 degrees C prior to their use. All drugs and investigational agents were tested over a range starting from a high concentration at or near the clinical Cmax and decreasing in half-log increments. If the clinical Cmax for an agent had not been determined, the highest concentration tested was 10 microM.
NCI60 Cell Culture. NCI60 cell lines were obtained from the NCI Developmental Therapeutics Program Tumor Repository. For each lot of cells, the Repository performed Applied Biosystems AmpFLSTR Identifiler testing with PCR amplification to confirm consistency with the published Identifier STR profile for each cell line. Cells were kept in continuous culture for no more than 20 passages. The optimal seeding densities for each of the cell lines at each time point assessed were determined prior to performing the concentration response studies. Briefly, the NCI60 human tumor lines were grown as monolayers in RPMI 1640 medium supplemented with 10% FBS and 2 mmol/L L-glutamine.
An additional 9 lines were from the NCI60 cell line panel including MDA-MB-231 breast carcinoma, MDA-MB-468 breast carcinoma, MCF7 breast carcinoma, Hs578T breast carcinoma, MALME-3M melanoma, SK-MEL-2 melanoma, SK-OV-3 ovarian carcinoma, DU-145 prostate carcinoma, PC-3 prostate carcinoma, all cell lines along with major genetic alterations are listed on Table 2. Pooled donor human umbilical vein endothelial cells (HUVEC, Lonza, cat. CC-2519) and human mesenchymal stem cells (hMSC, Lonza, cat. PT-2501) were purchased from Lonza (Walkersville, MD).
PDMR cell lines were grown in complete medium (DC medium): Dulbecco's modified Eagle's medium (DMEM)/F12 supplemented with 5% fetal bovine serum (FBS), 2 mM L-glutamine, 100 U/mL penicillin and 100 µg/ml streptomycin, 0.4 µg/ml hydrocortisone, 10 ng/ml epidermal growth factor (EGF) recombinant human protein, 24 µg/mL adenine, and 0.1 mg/mL primocin. During culture from frozen stock vials, PDMR cells were cultured in the same medium containing 10 µM Y-27632 (see Table 3). The PDCs were cultured in complete DMEM/F12 media without 10 microM Y-27632 dihydrochloride for at least two passages prior to the screen. The pooled donor HUVEC and hMSC were cultured in endothelial cell growth medium 2 (PromoCell, Heidelberg, Germany, cat. C-22011) and mesenchymal stem cell growth medium 2 (PromoCell, cat. C-28009), respectively. For all experiments, HUVEC and hMSC were used at passages </=5.
[…]

[1] = second compound 0.1 µM, first compound 0.0316 µM
[2] = second compound 0.1 µM, first compound 0.1 µM
[3] = second compound 0.1 µM, first compound 0.316 µM
[4] = second compound 0.1 µM, first compound 1 µM
[5] = second compound 0.1 µM, first compound 3.16 µM
[6] = second compound 0.1 µM, first compound 10 µM
[7] = second compound 0.316 µM, first compound 0.0316 µM
[8] = second compound 0.316 µM, first compound 0.1 µM
[9] = second compound 0.316 µM, first compound 0.316 µM
[10] = second compound 0.316 µM, first compound 1 µM
[11] = second compound 0.316 µM, first compound 3.16 µM
[12] = second compound 0.316 µM, first compound 10 µM
[13] = second compound 1 µM, first compound 0.0316 µM
[14] = second compound 1 µM, first compound 0.1 µM
[15] = second compound 1 µM, first compound 0.316 µM
[16] = second compound 1 µM, first compound 1 µM
[17] = second compound 1 µM, first compound 3.16 µM
[18] = second compound 1 µM, first compound 10 µM
[19] = second compound 3.16 µM, first compound 0.0316 µM
[20] = second compound 3.16 µM, first compound 0.1 µM
[21] = second compound 3.16 µM, first compound 0.316 µM
[22] = second compound 3.16 µM, first compound 1 µM
[23] = second compound 3.16 µM, first compound 3.16 µM
[24] = second compound 3.16 µM, first compound 10 µM
[25] = second compound 10 µM, first compound 0.0316 µM
[26] = second compound 10 µM, first compound 0.1 µM
[27] = second compound 10 µM, first compound 0.316 µM
[28] = second compound 10 µM, first compound 1 µM
[29] = second compound 10 µM, first compound 3.16 µM
[30] = second compound 10 µM, first compound 10 µM
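Further: spheroids exposed to the agents for seven days before readout.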

Compound	IC50 (second compound 0.1 µM) [nM]	IC50 (second compound 0.316 µM) [nM]	IC50 (second compound 1 µM) [nM]	IC50 (second compound 3.16 µM) [nM]	IC50 (second compound 10 µM) [nM]	viability, T/C [1] [%]	viability, T/C [2] [%]	viability, T/C [3] [%]	viability, T/C [4] [%]	viability, T/C [7] [%]	viability, T/C [8] [%]	viability, T/C [9] [%]	viability, T/C [10] [%]	viability, T/C [13] [%]	viability, T/C [14] [%]	viability, T/C [15] [%]	viability, T/C [16] [%]	viability, T/C [19] [%]	viability, T/C [20] [%]	viability, T/C [21] [%]	also measured
CC1(C)CCC(CN2CCN(c3ccc(C(=O)NS(=O)(=O)c4ccc(NCC5CCOCC5)c([N+](=O)[O-])c4)c(Oc4cnc5[nH]ccc5c4)c3)CC2)=C(c2ccc(Cl)cc2)C1 + CC(C)NCC(C(=O)N1CCN(c2ncnc3c2C(C)CC3O)CC1)c1ccc(Cl)cc1	5670	2840	< 31.6	< 31.6	< 31.6	136	114	120	107	103	96.8	83.1	71.3	37.2	31.9	34.8	32.3	10.9	11.4	11.3	viability, T/C [5]: 84.3%; viability, T/C [6]: 18.7%; viability, T/C [11]: 48.7%; viability, T/C [12]: 14.8%; viability, T/C [17]: 30.3%; viability, T/C [18]: 12.3%; viability, T/C [22]: 11.5%; viability, T/C [23]: 12.6%; viability, T/C [24]: 5.33%; viability, T/C [25]: 8.52%; viability, T/C [26]: 5.8%; viability, T/C [27]: 5.75%; viability, T/C [28]: 6.5%; viability, T/C [29]: 5.63%; viability, T/C [30]: 2.85%
CCCS(=O)(=O)Nc1ccc(F)c(C(=O)c2c[nH]c3ncc(-c4ccc(Cl)cc4)cc23)c1F + CC(C)NCC(C(=O)N1CCN(c2ncnc3c2C(C)CC3O)CC1)c1ccc(Cl)cc1	> 10000	> 10000	< 31.6	< 31.6	< 31.6	112	128	110	111	90.3	91.5	92.5	97.8	36.9	39.9	38.9	41.4	12.8	13.4	14.2	viability, T/C [5]: 112%; viability, T/C [6]: 90.8%; viability, T/C [11]: 110%; viability, T/C [12]: 100%; viability, T/C [17]: 47.2%; viability, T/C [18]: 53.7%; viability, T/C [22]: 14.5%; viability, T/C [23]: 21%; viability, T/C [24]: 24.1%; viability, T/C [25]: 7.7%; viability, T/C [26]: 7.32%; viability, T/C [27]: 8.04%; viability, T/C [28]: 8.61%; viability, T/C [29]: 10.4%; viability, T/C [30]: 11%
COc1c(OCCCN2CCOCC2)ccc2c3n(c(=NC(=O)c4cnc(N)nc4)nc12)CCN3 + CC(C)NCC(C(=O)N1CCN(c2ncnc3c2C(C)CC3O)CC1)c1ccc(Cl)cc1	16.4	5.9	< 3.16	< 3.16	< 3.16	25.8	3.96	1.09	1.15	16.9	3.36	0.91	0.95	8.13	2.24	0.79	1.24	3.83	1.68	0.83	viability, T/C (second compound 0.1 µM, first compound 0.00316 µM): 94.5%; viability, T/C (second compound 0.1 µM, first compound 0.01 µM): 68.5%; viability, T/C (second compound 0.316 µM, first compound 0.00316 µM): 61.5%; viability, T/C (second compound 0.316 µM, first compound 0.01 µM): 40%; viability, T/C (second compound 1 µM, first compound 0.00316 µM): 25.2%; viability, T/C (second compound 1 µM, first compound 0.01 µM): 15.6%; viability, T/C (second compound 3.16 µM, first compound 0.00316 µM): 9.51%; viability, T/C (second compound 3.16 µM, first compound 0.01 µM): 6.39%; viability, T/C [22]: 0.67%; viability, T/C (second compound 10 µM, first compound 0.00316 µM): 5.07%; viability, T/C (second compound 10 µM, first compound 0.01 µM): 3.81%; viability, T/C [25]: 2.45%; viability, T/C [26]: 1.59%; viability, T/C [27]: 0.62%; viability, T/C [28]: 0.82%
